Earlier results on 1 molecule are cited in publication PMC5897141 (Journal of neurochemistry, 2018).

The subject of data set [1] is VAChT. The note with it: NHP brain; ref Nishiyama et al. 2014; cited from earlier work.
In data set [2] the test system is σ1/2 receptors. The conditions noted are these: ref Shiba et al. 2006, Kawamura et al. 2006; cited from earlier work.

`Cc1cccc2c1C[C@@H](O)[C@H](N1CCN(c3ccccc3N)CC1)C2` (relative stereo) [[^11C](R,R)HAPT, (R,R)-trans-8-methyl-2-hydroxy-3-[4-[2-aminophenyl]-piperizinyl]tetralin, reference compound]: the “time-activity curves peak time post injection” value in data set [1] was at most 20 min. Also, the “selectivity for VAChT versus σ1/2 receptors” value in data set [2] was 10 fold.
